The target in assay [1] is Cyclin-dependent kinase 5/CDK5 activator 1 (Homo sapiens) (UniProt Q00535+Q15078). The assay can be described thus: Inhibition of human CDK5/p35 using RB Protein as substrate at 1 uM in presence of 32P-ATP by Hotspot assay relative to control; values are per cent of control.
The target in assay [2] is T1, Discoidin domain-containing receptor 2 (Homo sapiens) (UniProt Q16832).
T1 sequence (whole entry): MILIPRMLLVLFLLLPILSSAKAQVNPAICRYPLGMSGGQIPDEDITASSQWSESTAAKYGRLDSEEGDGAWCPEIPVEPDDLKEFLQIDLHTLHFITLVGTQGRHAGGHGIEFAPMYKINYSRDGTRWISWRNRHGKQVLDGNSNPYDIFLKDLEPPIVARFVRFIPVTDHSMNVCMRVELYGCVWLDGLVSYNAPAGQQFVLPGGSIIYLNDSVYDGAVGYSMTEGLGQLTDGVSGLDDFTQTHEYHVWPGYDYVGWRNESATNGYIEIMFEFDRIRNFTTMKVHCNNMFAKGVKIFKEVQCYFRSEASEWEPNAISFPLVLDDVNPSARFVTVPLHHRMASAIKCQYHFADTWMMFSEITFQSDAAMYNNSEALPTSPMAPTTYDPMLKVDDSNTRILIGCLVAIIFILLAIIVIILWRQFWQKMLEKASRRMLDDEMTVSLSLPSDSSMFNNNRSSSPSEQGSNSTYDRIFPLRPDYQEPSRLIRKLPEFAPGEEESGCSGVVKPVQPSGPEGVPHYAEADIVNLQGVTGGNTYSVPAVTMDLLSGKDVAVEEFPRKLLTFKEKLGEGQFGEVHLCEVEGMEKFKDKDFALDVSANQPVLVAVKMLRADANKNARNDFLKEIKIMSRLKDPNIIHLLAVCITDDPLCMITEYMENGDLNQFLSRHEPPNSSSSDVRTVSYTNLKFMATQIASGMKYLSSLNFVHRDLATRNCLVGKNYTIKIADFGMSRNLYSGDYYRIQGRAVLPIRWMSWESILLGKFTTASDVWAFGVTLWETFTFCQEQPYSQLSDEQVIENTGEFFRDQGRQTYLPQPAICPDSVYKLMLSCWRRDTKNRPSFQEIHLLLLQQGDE
Put plainly: Inhibition of human DDR2 using KKSRGDYMTMQIG as substrate at 1 uM in presence of 32P-ATP by Hotspot assay relative to control; values are per cent of control.

In assay [3] the target is Serine/threonine-protein kinase PLK2 (Homo sapiens) (UniProt Q9NYY3). Put plainly: Inhibition of human PLK2 using casein as substrate at 1 uM in presence of 32P-ATP by Hotspot assay relative to control; values are per cent of control.
Sequence of Serine/threonine-protein kinase PLK2 (Homo sapiens) (Q9NYY3 whole entry, looked up): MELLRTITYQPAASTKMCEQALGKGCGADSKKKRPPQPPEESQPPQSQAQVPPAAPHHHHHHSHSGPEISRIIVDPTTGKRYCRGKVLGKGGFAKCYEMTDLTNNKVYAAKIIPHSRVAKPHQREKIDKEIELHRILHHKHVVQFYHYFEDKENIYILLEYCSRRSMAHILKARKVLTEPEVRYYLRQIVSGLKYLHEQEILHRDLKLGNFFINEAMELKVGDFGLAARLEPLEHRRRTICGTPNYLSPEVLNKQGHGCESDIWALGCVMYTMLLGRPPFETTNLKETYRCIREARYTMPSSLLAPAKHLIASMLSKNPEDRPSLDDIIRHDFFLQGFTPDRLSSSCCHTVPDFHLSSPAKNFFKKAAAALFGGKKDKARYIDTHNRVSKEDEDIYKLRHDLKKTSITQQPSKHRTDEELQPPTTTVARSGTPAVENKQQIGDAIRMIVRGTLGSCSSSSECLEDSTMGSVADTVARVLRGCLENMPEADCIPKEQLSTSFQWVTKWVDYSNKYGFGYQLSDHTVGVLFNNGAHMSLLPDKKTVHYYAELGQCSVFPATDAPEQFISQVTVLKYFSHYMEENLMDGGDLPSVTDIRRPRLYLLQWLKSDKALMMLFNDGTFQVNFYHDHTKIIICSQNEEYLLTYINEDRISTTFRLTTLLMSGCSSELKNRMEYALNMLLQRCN
Assay [4] concerns the target STE20-like serine/threonine-protein kinase (Homo sapiens) (UniProt Q9H2G2). The assay can be described thus: Residual activity of human SLK/STK2 using histone H3 as substrate at 1 uM in presence of 32P-ATP by Hotspot assay relative to control.
Assay [5] has as its target T2, Tyrosine-protein kinase Mer (Homo sapiens) (UniProt Q12866).
T2 sequence (whole entry): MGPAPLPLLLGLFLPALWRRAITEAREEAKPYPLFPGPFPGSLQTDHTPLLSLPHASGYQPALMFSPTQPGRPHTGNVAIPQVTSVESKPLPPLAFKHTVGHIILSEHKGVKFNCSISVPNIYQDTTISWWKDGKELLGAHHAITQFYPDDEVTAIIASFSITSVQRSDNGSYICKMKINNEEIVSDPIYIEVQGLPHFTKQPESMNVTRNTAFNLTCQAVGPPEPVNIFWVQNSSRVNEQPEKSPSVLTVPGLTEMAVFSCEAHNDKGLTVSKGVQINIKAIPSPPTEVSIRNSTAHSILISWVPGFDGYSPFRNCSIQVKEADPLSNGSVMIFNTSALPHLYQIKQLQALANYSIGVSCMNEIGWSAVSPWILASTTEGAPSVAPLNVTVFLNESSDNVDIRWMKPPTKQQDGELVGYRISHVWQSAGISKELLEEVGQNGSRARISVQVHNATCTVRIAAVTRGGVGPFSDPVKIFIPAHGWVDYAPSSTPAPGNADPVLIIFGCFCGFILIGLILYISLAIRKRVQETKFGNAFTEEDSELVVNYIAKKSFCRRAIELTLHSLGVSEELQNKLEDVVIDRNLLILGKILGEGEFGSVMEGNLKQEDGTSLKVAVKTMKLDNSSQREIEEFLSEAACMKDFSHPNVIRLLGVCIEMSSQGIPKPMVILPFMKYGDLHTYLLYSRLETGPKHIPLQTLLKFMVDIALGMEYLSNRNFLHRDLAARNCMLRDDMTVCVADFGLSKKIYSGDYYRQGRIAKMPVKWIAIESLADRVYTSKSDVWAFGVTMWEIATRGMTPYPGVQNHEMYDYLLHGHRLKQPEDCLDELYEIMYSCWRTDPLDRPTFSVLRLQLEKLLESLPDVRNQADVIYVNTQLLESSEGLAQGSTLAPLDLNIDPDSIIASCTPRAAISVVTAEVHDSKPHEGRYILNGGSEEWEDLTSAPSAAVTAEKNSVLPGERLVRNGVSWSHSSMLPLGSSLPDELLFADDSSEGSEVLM
The assay can be described thus: Inhibition of human c-MER using poly[Glu:Tyr] (4:1) as substrate at 1 uM in presence of 32P-ATP by Hotspot assay relative to control; values are per cent of control.

Sequence of Cyclin-dependent kinase 5/CDK5 activator 1 (Homo sapiens) (Q00535 whole entry, the tested form may be a part): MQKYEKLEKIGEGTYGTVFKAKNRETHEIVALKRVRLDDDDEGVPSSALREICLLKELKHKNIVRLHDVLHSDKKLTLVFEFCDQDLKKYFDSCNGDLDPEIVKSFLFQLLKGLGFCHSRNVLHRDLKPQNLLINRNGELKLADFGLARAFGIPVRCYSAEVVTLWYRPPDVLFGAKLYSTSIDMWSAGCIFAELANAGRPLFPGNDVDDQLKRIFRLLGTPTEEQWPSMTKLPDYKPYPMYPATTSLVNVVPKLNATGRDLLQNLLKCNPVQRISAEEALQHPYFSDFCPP
Sequence of Cyclin-dependent kinase 5/CDK5 activator 1 (Homo sapiens) (Q15078 99-307 partner limits assumed): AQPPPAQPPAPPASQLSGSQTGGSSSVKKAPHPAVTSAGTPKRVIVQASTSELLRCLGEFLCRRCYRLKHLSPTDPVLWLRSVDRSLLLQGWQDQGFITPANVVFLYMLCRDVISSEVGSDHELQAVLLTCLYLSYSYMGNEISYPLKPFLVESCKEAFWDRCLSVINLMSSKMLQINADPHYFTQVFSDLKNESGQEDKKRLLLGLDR
Sequence of STE20-like serine/threonine-protein kinase (Homo sapiens) (Q9H2G2 whole entry, looked up): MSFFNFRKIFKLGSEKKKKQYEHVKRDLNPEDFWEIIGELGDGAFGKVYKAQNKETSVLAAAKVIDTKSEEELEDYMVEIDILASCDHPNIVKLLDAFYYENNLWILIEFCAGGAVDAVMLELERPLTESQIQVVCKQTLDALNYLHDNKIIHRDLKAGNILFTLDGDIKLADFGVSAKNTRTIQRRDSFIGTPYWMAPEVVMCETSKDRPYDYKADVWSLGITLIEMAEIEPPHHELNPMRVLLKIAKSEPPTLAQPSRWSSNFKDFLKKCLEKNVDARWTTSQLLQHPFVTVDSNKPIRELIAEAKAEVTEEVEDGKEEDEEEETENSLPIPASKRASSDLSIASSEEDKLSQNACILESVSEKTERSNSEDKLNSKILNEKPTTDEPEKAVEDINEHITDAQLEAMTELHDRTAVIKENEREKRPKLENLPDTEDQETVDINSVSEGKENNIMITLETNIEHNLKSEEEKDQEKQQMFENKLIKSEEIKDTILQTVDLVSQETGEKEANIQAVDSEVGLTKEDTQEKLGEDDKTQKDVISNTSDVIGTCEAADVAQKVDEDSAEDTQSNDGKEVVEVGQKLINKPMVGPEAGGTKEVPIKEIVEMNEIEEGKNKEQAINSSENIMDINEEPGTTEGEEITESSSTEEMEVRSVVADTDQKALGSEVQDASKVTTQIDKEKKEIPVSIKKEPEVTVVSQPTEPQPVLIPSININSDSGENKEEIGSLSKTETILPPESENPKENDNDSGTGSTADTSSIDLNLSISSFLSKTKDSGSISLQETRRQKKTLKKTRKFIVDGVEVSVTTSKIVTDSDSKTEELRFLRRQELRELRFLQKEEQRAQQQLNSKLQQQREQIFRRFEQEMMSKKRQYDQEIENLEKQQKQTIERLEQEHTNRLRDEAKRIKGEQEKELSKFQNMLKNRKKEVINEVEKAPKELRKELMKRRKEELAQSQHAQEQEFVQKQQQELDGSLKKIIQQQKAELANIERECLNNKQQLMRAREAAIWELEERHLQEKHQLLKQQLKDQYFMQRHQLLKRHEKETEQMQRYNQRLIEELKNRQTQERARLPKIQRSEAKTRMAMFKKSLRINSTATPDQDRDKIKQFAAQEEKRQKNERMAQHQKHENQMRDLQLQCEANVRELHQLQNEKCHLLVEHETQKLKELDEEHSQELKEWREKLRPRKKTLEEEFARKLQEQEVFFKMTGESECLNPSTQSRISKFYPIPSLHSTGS

For `CNC(=O)c1ccc2c(c1)ncn2-c1ccc(CC(=O)OC(C)(C)C)cc1`, the residual activity came to 97.1% in assay [1]; 98.7% in assay [2]; 99.1% in assay [3]; 92.1% in assay [4]; 102% in assay [5].

Regarding `Cc1cc(-c2cnc(N)c3c(-c4ccc5scnc5c4)csc23)n(C)n1`, the residual activity in assay [1] came out at 97.8%; in assay [2], 88.8%; in assay [3], 106%; in assay [4], 94.6%; in assay [5], 89.1%.

Consider `CC(C)S(=O)(=O)c1ccc2nccc(Nc3ccc4scnc4c3)c2c1`, for which the residual activity in assay [1] stood at 98.7%; in assay [2], 102%; in assay [3] it was 94.7%; in assay [4] it was 87.8%; in assay [5] it was 93.8%.

These data come from ChEMBL document CHEMBL5649166, “RIP3 induces apoptosis independent of pronecrotic kinase activity” (Mol Cell, 2014).
